Reference: article PMC3262007, “A Fluorescence-Based High-Throughput Assay for the Discovery of Exchange Protein Directly Activated by Cyclic AMP (EPAC) Antagonists” (PLoS ONE, 2012)

Experiments:
EPAC2 [1] = molecular target: T1, EPAC2 (Mus musculus, UniProt Q9EQZ6); experiment: 8-NBD-cAMP competition / primary screen fluorescence assay; format: binding; settings: for dose response of EPAC2/8-NBD-cAMP fluorescence signal: dose-dependent response, Figure 2; for IC50: competition with 8-NBD-cAMP in binding to EPAC2
T1 construct: when titrated with purified full-length EPAC2; made in house
T1 sequence (Q9EQZ6 1-993 isoform Q9EQZ6-3): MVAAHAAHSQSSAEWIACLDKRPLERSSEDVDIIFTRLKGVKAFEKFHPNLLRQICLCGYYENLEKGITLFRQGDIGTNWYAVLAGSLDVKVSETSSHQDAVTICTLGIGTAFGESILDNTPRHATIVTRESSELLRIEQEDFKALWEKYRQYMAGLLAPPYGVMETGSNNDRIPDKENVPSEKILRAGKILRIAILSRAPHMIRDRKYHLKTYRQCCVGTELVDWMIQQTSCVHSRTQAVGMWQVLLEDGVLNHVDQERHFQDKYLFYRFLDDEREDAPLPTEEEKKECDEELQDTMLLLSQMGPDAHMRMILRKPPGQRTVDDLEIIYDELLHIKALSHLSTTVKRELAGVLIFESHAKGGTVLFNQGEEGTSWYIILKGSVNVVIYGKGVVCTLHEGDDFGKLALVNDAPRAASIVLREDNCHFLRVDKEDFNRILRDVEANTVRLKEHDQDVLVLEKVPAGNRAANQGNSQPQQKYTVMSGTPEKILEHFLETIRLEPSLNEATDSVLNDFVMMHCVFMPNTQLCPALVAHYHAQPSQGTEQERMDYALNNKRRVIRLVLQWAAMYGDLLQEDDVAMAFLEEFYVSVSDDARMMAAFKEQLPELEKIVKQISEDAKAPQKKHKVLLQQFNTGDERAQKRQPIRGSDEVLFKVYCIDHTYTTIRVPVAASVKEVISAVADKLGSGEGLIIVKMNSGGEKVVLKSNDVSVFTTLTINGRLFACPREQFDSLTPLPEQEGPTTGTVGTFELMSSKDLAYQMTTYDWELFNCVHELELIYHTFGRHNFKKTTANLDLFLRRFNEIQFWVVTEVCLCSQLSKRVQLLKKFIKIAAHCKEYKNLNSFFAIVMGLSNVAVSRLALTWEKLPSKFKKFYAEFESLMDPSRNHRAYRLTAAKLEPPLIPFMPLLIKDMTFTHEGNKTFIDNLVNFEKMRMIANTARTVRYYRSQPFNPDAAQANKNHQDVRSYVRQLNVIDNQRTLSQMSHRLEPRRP
Description: Primary screen of NCI DTP (Developmental Therapeutics Program) diversity set library was performed in black 96-well microplates from Corning Costar (Cambridge, MA, USA). Briefly, 50 nM EPAC2 solution was prepared in 20 mM Tris buffer, pH 7.5, containing 150 mM NaCl, 1 mM EDTA and 1 mM […]. […] Test compounds were added from 10 mM stock solutions in DMSO. […] Fluorescence intensity signal from 8-NBD probe was recorded at room temperature before and after tested compounds were added using SpectaMaxM2 microplate reader (Molecular Devices, Silicon Valley, CA, USA) with excitation/emission wavelengths set at 470/540 nm.

EPAC2 [2] = molecular target: T1, EPAC2; experiment: EPAC2 GEF activity, Rap1 nucleotide exchange (secondary confirmation assay); format: biochemical; settings: 25 µM compound in the presence of 25 µM cAMP
Description: Measurement of in vitro guanine nucleotide exchange factor (GEF) activity of EPAC was adapted from a well known fluorescence-based assay using a fluorescent guanine nucleotide analog, and used as a functional confirmation assay for the compounds identified from primary screen. […] Exchange of Mant-GDP by GDP was measured as a decrease in fluorescence intensity over time using a FluoroMax-3 spectrofluorometer with excitation/emission wavelengths set at 366/450 nm. Typically, decay in the fluorescence intensity was recorded over a time course of 6000 s with data points taken every 60 s.

type II PKA holoenzyme = molecular target: T2, type II PKA holoenzyme (Homo sapiens, UniProt P31323); experiment: Type II PKA holoenzyme kinase activity (counter screening assay); format: biochemical; settings: 25 µM compound, 0.1 mM cAMP
T2 construct: made in house; host or cells: E. coli
T2 sequence (P31323 whole entry): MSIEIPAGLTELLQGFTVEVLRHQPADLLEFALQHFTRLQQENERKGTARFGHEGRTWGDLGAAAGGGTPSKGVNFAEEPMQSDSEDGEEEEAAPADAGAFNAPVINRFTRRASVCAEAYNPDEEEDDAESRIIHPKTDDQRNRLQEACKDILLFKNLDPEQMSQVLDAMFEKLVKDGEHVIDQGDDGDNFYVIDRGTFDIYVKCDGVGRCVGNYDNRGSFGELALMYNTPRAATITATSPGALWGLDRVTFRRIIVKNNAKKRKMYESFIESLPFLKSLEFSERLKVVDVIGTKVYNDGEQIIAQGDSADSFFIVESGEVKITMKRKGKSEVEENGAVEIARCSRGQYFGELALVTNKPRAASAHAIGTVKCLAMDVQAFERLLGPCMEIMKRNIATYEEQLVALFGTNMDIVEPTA
Description: (§1) Kinase activities of the type I and II PKA holoenzymes were measured spectrophotometrically in a 96-well plate with a coupled enzyme assay as described previously. In this assay, the formation of the ADP is coupled to the oxidation of NADH by the pyruvate kinase/lactate dehydrogenase reactions so the reaction rate can be determined by following the oxidation of NADH, reflected by a decrease in absorbance at 340 nm. […] Reactions were pre-equilibrated at room temperature and initiated by adding the Kemptide substrate (final concentration 0.26 mM). PKA activities measured in the presence of 25 µM H89, a selective PKA inhibitor, were used as positive controls of PKA inhibition.

type I PKA holoenzyme = molecular target: T3, type I PKA holoenzyme (Homo sapiens, UniProt P10644); experiment: Type I PKA holoenzyme kinase activity (counter screening assay); format: biochemical; settings: 25 µM compound, 0.1 mM cAMP
T3 construct: made in house; host or cells: E. coli
T3 sequence (P10644 whole entry): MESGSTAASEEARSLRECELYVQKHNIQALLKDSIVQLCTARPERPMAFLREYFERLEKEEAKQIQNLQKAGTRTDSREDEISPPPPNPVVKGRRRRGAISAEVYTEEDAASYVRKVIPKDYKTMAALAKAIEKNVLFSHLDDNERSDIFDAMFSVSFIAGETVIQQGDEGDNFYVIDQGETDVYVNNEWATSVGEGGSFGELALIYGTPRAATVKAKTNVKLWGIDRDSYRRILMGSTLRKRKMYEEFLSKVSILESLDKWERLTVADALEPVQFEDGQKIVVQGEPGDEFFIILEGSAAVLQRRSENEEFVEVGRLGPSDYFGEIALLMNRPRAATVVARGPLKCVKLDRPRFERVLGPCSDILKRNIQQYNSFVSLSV
Description: as §1

EPAC = settings: cited from earlier work

dose response of EPAC2/8-NBD-cAMP fluorescence signal (EPAC2 [1])	IC50 (EPAC2 [1]) [µM]	SMILES	inhibition of cAMP-mediated EPAC2 GEF activity (EPAC2 [2])	other results
minimal effects		O=c1[nH]c(=O)c2ncn(C3OC4COP(=O)(O)OC4C3O)c2[nH]1 (stereo not shown) [cXMP, reference compound]		
minimal effects		Nc1ncnc2c1ncn2C1CC2OP(=O)(O)OCC2O1 (stereo not shown) [2′-deoxy-cAMP, reference compound]		
	3.8	O=C1C=CC2=C(Oc3c(ccc(O)c3O)/C2=C/C=C(O)O)C1=O [NSC119911]	inhibit EPAC2 GEF activity to basal levels	type II PKA activity blocked (type II PKA holoenzyme): ~50%; type I PKA activity blocked (type I PKA holoenzyme): ~50%
significant dose-dependent inhibitions		Nc1ncnc2c1nc(Cl)n2[C@@H]1O[C@@H]2COP(=O)(O)O[C@H]2[C@H]1O [8-Cl-cAMP, reference compound]		

Further lines, the compound ahead of its results:

SMILES	dose response of EPAC2/8-NBD-cAMP fluorescence signal (EPAC2 [1])	IC50 (EPAC2 [1]) [µM]	inhibition of cAMP-mediated EPAC2 GEF activity (EPAC2 [2])	other results
O=C1C=Cc2ccccc2C1=NNc1cccc2cc(S(=O)(=O)O)ccc12 [NSC45576]		1.7	inhibit EPAC2 GEF activity to basal levels	effect on cAMP-induced type II PKA holoenzyme activation (type II PKA holoenzyme): did not significantly alter; effect on cAMP-induced type I PKA holoenzyme activation (type I PKA holoenzyme): did not significantly alter
CO[C@@H]1[C@@H]2OP(=O)(O)OC[C@H]2O[C@H]1n1c(Sc2ccc(Cl)cc2)nc2c(N)ncnc21 [8-CPT-2′-O-Me-cAMP, 8-(4-chloro-phenylthio)-2′-O-methyladenosine-3′,5′-cyclic monophosphate]				selectivity towards EPAC over PKA (EPAC): about 100 fold
N#Cc1c(NC(=O)C(F)(F)F)sc2c3c(=O)c4ccccc4c(=O)c=3oc3ccccc3c12 [NSC686365]		7.9	inhibit EPAC2 GEF activity to basal levels	effect on cAMP-induced type II PKA holoenzyme activation (type II PKA holoenzyme): did not significantly alter; effect on cAMP-induced type I PKA holoenzyme activation (type I PKA holoenzyme): did not significantly alter
